In ChEMBL document CHEMBL5131391, “One-pot three-component synthesis of novel pyrazolo[3,4-b]pyridines as potent antileukemic agents” (Eur J Med Chem, 2022):
Activity calls are given as the source filed them. The rule behind the calls is not given here.

Columns and labels:
[1] = system: RS4-11; test: Induction of cell cycle arrest in human RS4-11 cells assessed as accumulation of cells in G2/M phase measured after 48 hrs by PI staining based flow cytometry analysis; assay type: functional; settings: dose 1.25-10 µM, DDE = dose-dependent effect
[2] = system: RS4-11; test: Downregulation of MEIS1 protein expression in human RS4-11 cells at 5 to 20 uM measured after 24 hrs by Western blot analysis; assay type: functional, cell-based; settings: dose 5-20 µM
[3] = system: RS4-11; test: Induction of cell cycle arrest in human RS4-11 cells assessed as accumulation of cells in subG1 phase at 1.25 to 10 uM measured after 72 hrs by PI staining based flow cytometry analysis; assay type: functional; settings: dose 1.25-10 µM
[4] = system: RS4-11; test: Downregulation of HOXA9 protein expression in human RS4-11 cells at 5 to 20 uM measured after 24 hrs by Western blot analysis; assay type: functional, cell-based; settings: dose 5-20 µM
[5] = system: OVCAR-3; test: Antiproliferative activity against human OVCAR-3 cells assessed as growth inhibition measured after 48 hrs by NCI protocol based SRB assay; assay type: functional
[6] = system: COLO 205; test: Cytostatic activity in human COLO 205 cells assessed as tumor growth inhibition measured after 48 hrs by NCI protocol based SRB assay; assay type: functional
[7] = system: NCI/ADR-RES; test: Cytostatic activity in human NCl/ADR-RES cells assessed as tumor growth inhibition measured after 48 hrs by NCI protocol based SRB assay; assay type: functional
[8] = system: K562; test: Cytostatic activity in human K562 cells assessed as tumor growth inhibition measured after 48 hrs by NCI protocol based SRB assay; assay type: functional
[9] = system: CCRF-CEM; test: Cytostatic activity in human CCRF-CEM cells assessed as tumor growth inhibition measured after 48 hrs by NCI protocol based SRB assay; assay type: functional
[10] = system: T47D; test: Cytostatic activity in human T47D cells assessed as tumor growth inhibition measured after 48 hrs by NCI protocol based SRB assay; assay type: functional
[11] = system: RXF 393; test: Cytostatic activity in human RXF 393 cells assessed as tumor growth inhibition measured after 48 hrs by NCI protocol based SRB assay; assay type: functional
[12] = system: IGROV-1; test: Cytostatic activity in human IGROV-1 cells assessed as tumor growth inhibition measured after 48 hrs by NCI protocol based SRB assay; assay type: functional
[13] = system: PC-3; test: Antiproliferative activity against human PC-3 cells assessed as growth inhibition measured after 48 hrs by NCI protocol based SRB assay; assay type: functional
[14] = system: NCI-H522; test: Cytostatic activity in human NCI-H522 cells assessed as tumor growth inhibition measured after 48 hrs by NCI protocol based SRB assay; assay type: functional
[15] = system: Malme-3M; test: Cytostatic activity in human Malme-3M cells assessed as tumor growth inhibition measured after 48 hrs by NCI protocol based SRB assay; assay type: functional
[16] = system: OVCAR-4; test: Antiproliferative activity against human OVCAR-4 cells assessed as growth inhibition measured after 48 hrs by NCI protocol based SRB assay; assay type: functional
[17] = system: CCRF-CEM; test: Antiproliferative activity against human CCRF-CEM cells assessed as growth inhibition measured after 48 hrs by NCI protocol based SRB assay; assay type: functional
[18] = system: Hs-578T; test: Cytostatic activity in human Hs-578T cells assessed as tumor growth inhibition measured after 48 hrs by NCI protocol based SRB assay; assay type: functional
[19] = system: HOP-92; test: Antiproliferative activity against human HOP-92 cells assessed as growth inhibition measured after 48 hrs by NCI protocol based SRB assay; assay type: functional
[20] = system: CAKI-1; test: Cytostatic activity in human CAKI-1 cells assessed as tumor growth inhibition measured after 48 hrs by NCI protocol based SRB assay; assay type: functional
[21] = system: MDA-MB-468; test: Cytostatic activity in human MDA-MB-468 cells assessed as tumor growth inhibition measured after 48 hrs by NCI protocol based SRB assay; assay type: functional
[22] = system: MDA-MB-435; test: Cytostatic activity in human MDA-MB-435 cells assessed as tumor growth inhibition measured after 48 hrs by NCI protocol based SRB assay; assay type: functional
[23] = system: EKVX; test: Antiproliferative activity against human EKVX cells assessed as growth inhibition measured after 48 hrs by NCI protocol based SRB assay; assay type: functional
[24] = system: Malme-3M; test: Antiproliferative activity against human Malme-3M cells assessed as growth inhibition measured after 48 hrs by NCI protocol based SRB assay; assay type: functional
[25] = system: RPMI-8226; test: Cytostatic activity in human RPMI-8226 cells assessed as tumor growth inhibition measured after 48 hrs by NCI protocol based SRB assay; assay type: functional
[26] = system: PC-3; test: Cytostatic activity in human PC-3 cells assessed as tumor growth inhibition measured after 48 hrs by NCI protocol based SRB assay; assay type: functional
[27] = system: SK-MEL-28; test: Cytostatic activity in human SK-MEL-28 cells assessed as tumor growth inhibition measured after 48 hrs by NCI protocol based SRB assay; assay type: functional
[28] = system: UACC-62; test: Antiproliferative activity against human UACC-62 cells assessed as growth inhibition measured after 48 hrs by NCI protocol based SRB assay; assay type: functional
[29] = system: SK-MEL-28; test: Antiproliferative activity against human SK-MEL-28 cells assessed as growth inhibition measured after 48 hrs by NCI protocol based SRB assay; assay type: functional
[30] = system: DU-145; test: Cytostatic activity in human DU-145 cells assessed as tumor growth inhibition measured after 48 hrs by NCI protocol based SRB assay; assay type: functional
[31] = system: NCI/ADR-RES; test: Antiproliferative activity against human NCl/ADR-RES cells assessed as growth inhibition measured after 48 hrs by NCI protocol based SRB assay; assay type: functional
[32] = system: UACC-257; test: Cytostatic activity in human UACC-257 cells assessed as tumor growth inhibition measured after 48 hrs by NCI protocol based SRB assay; assay type: functional
[33] = system: UO-31; test: Cytostatic activity in human UO-31 cells assessed as tumor growth inhibition measured after 48 hrs by NCI protocol based SRB assay; assay type: functional
[34] = system: EKVX; test: Cytostatic activity in human EKVX cells assessed as tumor growth inhibition measured after 48 hrs by NCI protocol based SRB assay; assay type: functional
[35] = system: SK-OV-3; test: Antiproliferative activity against human SK-OV-3 cells assessed as growth inhibition measured after 48 hrs by NCI protocol based SRB assay; assay type: functional
[36] = system: U-251; test: Cytostatic activity in human U-251 cells assessed as tumor growth inhibition measured after 48 hrs by NCI protocol based SRB assay; assay type: functional
[37] = system: SF-268; test: Cytostatic activity in human SF-268 cells assessed as tumor growth inhibition measured after 48 hrs by NCI protocol based SRB assay; assay type: functional
[38] = system: HCT-116; test: Antiproliferative activity against human HCT-116 cells assessed as growth inhibition measured after 48 hrs by NCI protocol based SRB assay; assay type: functional
[39] = system: SR; test: Antiproliferative activity against human SR cells assessed as growth inhibition at 10 uM measured after 48 hrs by NCI protocol based SRB assay relative to control; assay type: functional; settings: read-out: GI
[40] = read-out: LC50 (the source's name)

Which results are given for `Cc1ccc(-c2nc3c(c(-c4ccccc4)nn3-c3ccccc3)c(-c3ccc(O)cc3)c2C#N)cc1`?
Activity [1]: Dde; Activity [2]: Active; Activity [3]: Active; Activity [4]: Active

With `N#Cc1c(-c2ccccc2)nc2c(c(-c3ccccc3)nn2-c2ccccc2)c1-c1ccc(O)cc1` as the compound, how does the GI50 [5] read?
Its GI50 is 2 µM.

What about the CC50 [5, 40] of the same compound?
The CC50 was 9.91 µM.

And the TGI [6]?
The TGI was 6.31 µM.

What about the TGI [7] of the same compound?
Its TGI is 5.62 µM.

And the TGI [8]?
Its TGI is greater than 100 µM.

And the TGI [9]?
The TGI was 13.4 µM.

And the TGI [10]?
The TGI was 23.8 µM.

And the TGI [11]?
Its TGI is 2.35 µM.

And the TGI [12]?
Its TGI is 3.62 µM.

And the GI50 [13]?
The GI50 was 1.82 µM.

And the CC50 [13, 40]?
The CC50 was 7.86 µM.

What about the TGI [14] of the same compound?
The TGI was 6.03 µM.

What about the TGI [15] of the same compound?
Its TGI is 3.83 µM.

And the GI50 [16]?
Its GI50 is 1.95 µM.

And the CC50 [16, 40]?
The CC50 was 12.8 µM.

And the GI50 [17]?
The GI50 was 3.13 µM.

What about the CC50 [17, 40] of the same compound?
The CC50 was greater than 100 µM.

And the TGI [18]?
The TGI was 4.46 µM.

What about the GI50 [19] of the same compound?
The GI50 was 2.06 µM.

What about the CC50 [19, 40] of the same compound?
Its CC50 is 8.6 µM.

What about the TGI [20] of the same compound?
Its TGI is 6.7 µM.

What about the TGI [21] of the same compound?
The TGI was 5.57 µM.

What about the TGI [22] of the same compound?
Its TGI is 3.71 µM.

What about the GI50 [23] of the same compound?
Its GI50 is 1.92 µM.

And the CC50 [23, 40]?
The CC50 was 21.9 µM.

What about the GI50 [24] of the same compound?
The GI50 was 1.62 µM.

And the CC50 [24, 40]?
Its CC50 is 9.06 µM.

And the TGI [25]?
The TGI was 17.9 µM.

What about the TGI [26] of the same compound?
The TGI was 3.78 µM.

And the TGI [27]?
Its TGI is 3.05 µM.

And the GI50 [28]?
Its GI50 is 1.7 µM.

What about the CC50 [28, 40] of the same compound?
Its CC50 is 5.93 µM.

What about the GI50 [29] of the same compound?
Its GI50 is 1.58 µM.

And the CC50 [29, 40]?
The CC50 was 5.86 µM.

And the TGI [30]?
Its TGI is 8.53 µM.

And the GI50 [31]?
The GI50 was 2.27 µM.

And the CC50 [31, 40]?
Its CC50 is 2.95 µM.

What about the TGI [32] of the same compound?
The TGI was 12.1 µM.

What about the TGI [33] of the same compound?
Its TGI is 4.17 µM.

And the TGI [34]?
Its TGI is 5.1 µM.

And the GI50 [35]?
Its GI50 is 2.87 µM.

And the CC50 [35, 40]?
Its CC50 is 2.98 µM.

What about the TGI [36] of the same compound?
Its TGI is 3.97 µM.

And the TGI [37]?
Its TGI is 9.14 µM.

What about the GI50 [38] of the same compound?
Its GI50 is 2.63 µM.

And the CC50 [38, 40]?
Its CC50 is 83.4 µM.

Which inhibition of growth at 10 µM [39] does the source give for `N#Cc1c(-c2ccco2)nc2c(c(-c3ccccc3)nn2-c2ccccc2)c1-c1ccc(O)cc1` here?
Its inhibition of growth at 10 µM is 81%.
